# Assay results taken from patent US11466044B2 (WAYNE STATE UNIVERSITY, priority 2017, dated 2022).
# Read-outs that look alike come from different tables or passages of the source.
# How the values were obtained:
# M. abscessus = experiment: MIC by broth microdilution, M. abscessus; type: cell-based; conditions: Table 5 (Example 3)
# M. smegmatis SZ380 = experiment: MIC by broth microdilution, M. smegmatis; conditions: for MIC M. smegmatis SZ380 WT: Table 5 (Example 3)
# [1] = tested on: E coli carrying specific resistance determinants; experiment: MIC by broth microdilution, E coli carrying specific resistance determinants; type: cell-based; conditions: Table 5 (Example 3)
# E coli wild type = experiment: MIC by broth microdilution, wild type E coli; type: cell-based; conditions: for MIC E. coli WT: Table 5 (Example 3); for MIC: Escherichia coli
# P aeruginosa = experiment: MIC by broth microdilution, P aeruginosa isolates; type: cell-based, Pseudomonas aeruginosa; conditions: for MIC: read-out: MIC AG220 P. aerugin
# [2] = tested on: Enterobacter cloacae AG290; experiment: MIC by broth microdilution, Enterobacter cloacae; type: cell-based; conditions: strain AG290 Enterobacter cloacae; for MIC: read-out: MIC AG290 E. cloacae
# [3] = tested on: Acinetobacter baumannii pittii AG225; experiment: MIC by broth microdilution, Acinetobacter baumannii; type: cell-based; conditions: strain AG225 Acinetobacter baumannii pittii
# [4] = tested on: Klebsiella pneumonia AG215; experiment: MIC by broth microdilution, Klebsiella pneumonia; type: cell-based; conditions: strain AG215 Klebsiella pneumonia; for MIC: Klebsiella pneumoniae, read-out: MIC AG215 K. pneumon
# MRSA = experiment: MIC by broth microdilution, MRSA isolates; type: cell-based; conditions: Table 1 (Example 2); for MIC50 MRSA AG38: strain AG38
# [5] = tested on: wild type bacterial ribosomes; experiment: in-vitro translation assay, bacterial ribosomes; type: biochemical; conditions: bacterial ribosome; Table 3 (Example 2); read-out: IC50 Bac
# Text: (§1) The antiribosomal activity of these compounds was investigated with cell-free translation assays using both wild type bacterial ribosomes and hybrid ribosomes carrying eukaryotic decoding A sites enabling the prediction of selectivity.
# [6] = tested on: mitochondrial ribosome (human chimeric); type: biochemical; conditions: mitochondrial; Table 3 (Example 2); read-out: IC50 Mit
# Text: as §1
# [7] = tested on: cytosolic ribosome (human chimeric); type: biochemical; conditions: cytosolic; Table 3 (Example 2); read-out: IC50 Cyt
# Text: as §1
# [8] = strain AG220 Pseudomonas aeruginosa ATCC27853
# [9] = ATCC25922, strain AG212 E. coli (ATCC25922), read-out: MIC AG212 E. coli
molecule,measurement,setting,value
"NCC[C@H](O)C(=O)N[C@@H]1C[C@H](N)[C@@H](O[C@H]2O[C@H](CN)[C@@H](O)[C@H](O)[C@H]2O)[C@H](O)[C@H]1O[C@H]1O[C@H](CO)[C@@H](O)[C@H](N)[C@H]1O [AMK, reference compound]",MIC M. abscessus ATCC 19977 WT,M. abscessus,1 µg/mL
same,MIC M. abscessus clinical isolate,M. abscessus; clinical isolate,2 µg/mL
same,MIC M. abscessus engineered Δeis2,M. abscessus,0.125 to 0.25 µg/mL
same,MIC M. smegmatis SZ380 WT,M. smegmatis SZ380,0.5 µg/mL
same,MIC E. coli AG106 AAC(2′)-Ia,[1],2 µg/mL
same,MIC E. coli pGB2armA armA,[1],>128 μg/ml
same,MIC E. coli pH434 AAC(2′)-Ib,[1]; pH434 AAC(2′)-Ib,2 μg/ml
same,MIC E. coli WT,E coli wild type; WT,2 µg/mL
gentamicin [reference compound],MIC M. abscessus ATCC 19977 WT,M. abscessus,2 to 4 µg/mL
same,MIC M. abscessus engineered Δeis2,M. abscessus,2 µg/mL
same,MIC M. smegmatis SZ380 WT,M. smegmatis SZ380,1 µg/mL
same,MIC E. coli AG106 AAC(2′)-Ia,[1],2 to 4 µg/mL
same,MIC E. coli pGB2armA armA,[1],>128 μg/ml
same,MIC E. coli WT,E coli wild type; WT,0.5 µg/mL
NCC1O[C@H](O[C@@H]2C(O)[C@H](O[C@@H]3C(O)[C@H](N)CC(N)[C@H]3O[C@H]3OC(CO)[C@@H](CC(O)CO)C(O)[C@@H]3N)O[C@@H]2CO)C(N)C(O)[C@@H]1O (some centres unmarked) [Compound 198],MIC,P aeruginosa; [8],16 µg/mL
same,MIC,[2],4 µg/mL
same,MIC,[3],8 µg/mL
same,MIC,[4],2 to 4 µg/mL
same,MIC,E coli wild type; [9],8 µg/mL
CCC(O)C1OC(OC2C(N)CC(N)C(O)C2OC2OC(CO)C(OC3OC(CN)C(O)C(O)C3N)C2O)C(N)C(O)C1O (centres unmarked) [Compound 189],MIC AG220 P. aerugin,P aeruginosa; [8],>64 µg/mL
same,MIC AG290 E. cloacae,[2],2 to 4 µg/mL
same,MIC AG225 A. baumannii,[3],4 to 8 µg/mL
same,MIC AG215 K. pneumon,[4],2 µg/mL
same,MIC50 MRSA AG38,MRSA,4 to 8 µg/mL
same,MIC AG212 E. coli,E coli wild type; strain AG212 E. coli (ATCC25922),8 µg/mL
NCC1O[C@H](O[C@@H]2C(O)[C@H](O[C@@H]3C(O)[C@H](N)CC(N)[C@H]3O[C@H]3OC(CO)[C@@H](CCO)C(O)[C@@H]3N)O[C@@H]2CO)C(N)C(O)[C@@H]1O (some centres unmarked) [Compound 197],MIC,P aeruginosa; [8],32 µg/mL
same,MIC,[2],1 to 2 µg/mL
same,MIC,[3],2 µg/mL
same,MIC,[4],1 µg/mL
same,MIC,E coli wild type; [9],2 to 4 µg/mL
NCC1O[C@H](O[C@@H]2C(N)C[C@@H](N)C(O)[C@H]2O[C@@H]2O[C@H](CO)[C@H](F)C2O)[C@@H](N)C(O)[C@@H]1O (some centres unmarked) [Compound 093],MIC,P aeruginosa; [8],> 64 µg/mL
same,MIC,[2],2 µg/mL
same,MIC,"M. smegmatis SZ380; Mycolicibacterium smegmatis, SZ380, read-out: MIC SZ380 M. smegmatis, strain SZ380 Mycobacterium smegmatis",8 µg/mL
same,MIC,[3],16 µg/mL
same,MIC,[4],1 to 2 µg/mL
same,MIC,"E coli wild type; ATCC25922, read-out: MIC AG212 E. coli, strain AG212 E. coli (ATCC25922)",2 µg/mL
NC[C@@H]1O[C@H](O[C@@H]2C(O)[C@H](O[C@@H]3C(O)[C@H](N)CC(N)[C@H]3O[C@H]3OC4C(O)CCCO[C@H]4[C@H](O)C3N)O[C@@H]2CO)C(N)C(O)[C@@H]1O (some centres unmarked) [Compound 199],MIC,P aeruginosa; [8],> 32 µg/mL
same,MIC,[2],> 32 µg/mL
same,MIC,[3],> 32 µg/mL
same,MIC,[4],32 µg/mL
same,MIC,E coli wild type; [9],> 32 µg/mL
"CC1CC(N)C2O[C@H](O[C@@H]3C(N)C[C@@H](N)C(O)[C@H]3O[C@@H]3O[C@H](CO)[C@H](O[C@H]4O[C@@H](CN)[C@@H](O)C(O)C4N)C3O)C(N)[C@@H](O)[C@@H]2O1 (stereo partly drawn) [Compound 150, 4-O-(2′,6′-Diamino-4′,8′-anhydro-2′,6′,7′,9′-tetradeoxy-D-erythro-α-D-gluco-nonapyranosyl)-5-O-(β-paramobiosyl)-2-deoxystreptamine.6AcOH]",IC50,[5],0.48 µM
same,MIC50 P aeruginosa AG31,"P aeruginosa; strain AG31, Table 1 (Example 2)",>128 µg/mL
same,MIC50 P aeruginosa AG32,"P aeruginosa; strain AG32, Table 1 (Example 2)",>128 µg/mL
same,MIC50 P aeruginosa AG33,"P aeruginosa; strain AG33, Table 1 (Example 2)",>128 µg/mL
same,MIC50 P aeruginosa AG86,"P aeruginosa; strain AG86, Table 1 (Example 2)",>128 µg/mL
same,MIC SZ380 M. smegmatis,M. smegmatis SZ380; strain SZ380 Mycobacterium smegmatis,16 to 32 µg/mL
same,IC50,[6],4.1 µM
same,IC50,[7],12 µM
same,MIC50 MRSA AG38,MRSA,128 µg/mL
same,MIC50 MRSA AG39,MRSA; strain AG39,128 µg/mL
same,MIC50 MRSA AG42,MRSA; strain AG42,128 µg/mL
same,MIC50 MRSA AG44,MRSA; strain AG44,128 µg/mL
same,MIC50 E coli BM13 (AG06) wt,"E coli wild type; BM13 (AG06) wt, Table 2A (Example 2)",64 to 128 µg/mL
same,MIC WT,"E coli wild type; WT, Table 3 (Example 2)",64 to 128 µg/mL
same,MIC50 E coli pH430 WT,"E coli wild type; pH430 WT, Table 2B (Example 2)",64-128 μg/ml
same,MIC50 E coli AG01,"E coli wild type; strain AG01, Table 1 (Example 2)",>128 µg/mL
same,MIC50 E coli AG03,"E coli wild type; strain AG03, Table 1 (Example 2)",>128 µg/mL
same,MIC50 E coli AG55,"E coli wild type; strain AG55, Table 1 (Example 2)",>128 µg/mL
